Measurements as given in patent US8183351B2, “Avermectin derivatives” (Bayer Cropscience AG, priority 2006, dated 2012).

Legend:
[1] = system: larvae of the mustard beetle (Phaedon cochleariae); assay: Phaedon test (PHAECO spray treatment); format: in vivo; conditions: Example G; 4 ppm active compound; sprayed Chinese cabbage discs
Experimental: Phaedon Test (PHAECO Spray Treatment)
• Solvents: 78 parts by weight of acetone • 1.5 parts by weight of dimethylformamide • Emulsifier: 0.5 part by weight of alkylaryl polyglyycol ether
After the desired period of time, the effect in % is determined. 100% means that all beetle larvae have been killed; 0% means that none of the beetle larvae have been killed.

[2] = system: caterpillars of the army worm (Spodoptera frugiperda); assay: Spodoptera frugiperda test (SPODFR spray treatment); format: in vivo; conditions: Example I; 4 ppm active compound; sprayed maize leaf discs
Experimental: Spodoptera frugiperda Test (SPODFR Spray Treatment)
• Solvents: 78.0 parts by weight of acetone • 1.5 parts by weight of dimethylformamide • Emulsifier: 0.5 part by weight of alkylaryl polyglyycol ether
After the desired period of time, the effect in % is determined. 100% means that all caterpillars have been killed; 0% means that none of the caterpillars have been killed.

Structure (SMILES)	Kill rate in % after 7 days [1]	Kill rate in % after 5 days [2]
CC[C@H](C)[C@H]1OC2(C=C[C@@H]1C)C[C@@H]1C[C@@H](C/C=C(\C)[C@@H](OC3CC(OC)C(OC(=O)CN4CCN(Cc5ccccc5)CC4)C(C)O3)[C@@H](C)/C=C/C=C3\CO[C@@H]4[C@H](O)C(C)=CC(C(=O)O1)[C@]34O)O2 (stereo partly shown) [Example 78]	100%	100%
CC[C@H](C)[C@H]1OC2(C=C[C@@H]1C)C[C@@H]1C[C@@H](C/C=C(\C)[C@@H](OC3CC(OC)C(OC(=O)CN4CCN(C)CC4)C(C)O3)[C@@H](C)/C=C/C=C3\CO[C@@H]4[C@H](O)C(C)=CC(C(=O)O1)[C@]34O)O2 (stereo partly shown) [Example 76]	100%	100%
CC[C@H](C)[C@H]1OC2(C=C[C@@H]1C)C[C@@H]1C[C@@H](C/C=C(\C)[C@@H](OC3CC(OC)C(OC(=O)CN4C(=O)CCC4=O)C(C)O3)[C@@H](C)/C=C/C=C3\CO[C@@H]4[C@H](O)C(C)=CC(C(=O)O1)[C@]34O)O2 (stereo partly shown) [Example 45]	100%	100%
CC[C@H](C)[C@H]1OC2(C=C[C@@H]1C)C[C@@H]1C[C@@H](C/C=C(\C)[C@@H](OC3CC(OC)C(OC(=O)C(C)CN(C)C)C(C)O3)[C@@H](C)/C=C/C=C3\CO[C@@H]4[C@H](O)C(C)=CC(C(=O)O1)[C@]34O)O2 (stereo partly shown) [Example 82]	100%	100%
CC[C@H](C)[C@H]1OC2(C=C[C@@H]1C)C[C@@H]1C[C@@H](C/C=C(\C)[C@@H](OC3CC(OC)C(OC(=O)C4CCCN(C)C4)C(C)O3)[C@@H](C)/C=C/C=C3\CO[C@@H]4[C@H](O)C(C)=CC(C(=O)O1)[C@]34O)O2 (stereo partly shown) [Example 84]	100%	100%
CC[C@H](C)[C@H]1OC2(C=C[C@@H]1C)C[C@@H]1C[C@@H](C/C=C(\C)[C@@H](OC3CC(OC)C(OC(=O)Cc4cccn4C)C(C)O3)[C@@H](C)/C=C/C=C3\CO[C@@H]4[C@H](O)C(C)=CC(C(=O)O1)[C@]34O)O2 (stereo partly shown) [Example 71]	100%	100%
CC[C@H](C)[C@H]1OC2(C=C[C@@H]1C)C[C@@H]1C[C@@H](C/C=C(\C)[C@@H](OC3CC(OC)C(OC(=O)CC4C(=O)NCCN4C)C(C)O3)[C@@H](C)/C=C/C=C3\CO[C@@H]4[C@H](O)C(C)=CC(C(=O)O1)[C@]34O)O2 (stereo partly shown) [Example 85]	83%	100%
CC[C@H](C)[C@H]1OC2(CC[C@@H]1C)C[C@@H]1C[C@@H](C/C=C(\C)[C@@H](OC3CC(OC)C(OC(=O)CN)C(C)O3)[C@@H](C)/C=C/C=C3\CO[C@@H]4[C@H](O)C(C)=CC(C(=O)O1)[C@]34O)O2 (stereo partly shown) [Example 103]	100%	100%
CC[C@H](C)[C@H]1OC2(C=C[C@@H]1C)C[C@@H]1C[C@@H](C/C=C(\C)[C@@H](OC3CC(OC)C(OC(=O)CN4CCNCC4)C(C)O3)[C@@H](C)/C=C/C=C3\CO[C@@H]4[C@H](O)C(C)=CC(C(=O)O1)[C@]34O)O2.O=C(O)c1ccccc1.O=C(O)c1ccccc1 (stereo partly shown) [Example 107, 4′-O-(piperazin-1-ylacetyl)-avermectin B1 monosaccharide dibenzoate]	100%	100%
CC[C@H](C)[C@H]1OC2(C=C[C@@H]1C)C[C@@H]1C[C@@H](C/C=C(\C)[C@@H](OC3CC(OC)C(OC(=O)CCN4CCN(C)CC4)C(C)O3)[C@@H](C)/C=C/C=C3\CO[C@@H]4[C@H](O)C(C)=CC(C(=O)O1)[C@]34O)O2 (stereo partly shown) [Example 88]	100%	100%
CC[C@H](C)[C@H]1OC2(C=C[C@@H]1C)C[C@@H]1C[C@@H](C/C=C(\C)[C@@H](OC3CC(OC)C(OC(=O)CCN4CCCCC4)C(C)O3)[C@@H](C)/C=C/C=C3\CO[C@@H]4[C@H](O)C(C)=CC(C(=O)O1)[C@]34O)O2 (stereo partly shown) [Example 87]	100%	100%
CC[C@H](C)[C@H]1OC2(C=C[C@@H]1C)C[C@@H]1C[C@@H](C/C=C(\C)[C@@H](OC3CC(OC)C(OC(=O)Cn4cncn4)C(C)O3)[C@@H](C)/C=C/C=C3\CO[C@@H]4[C@H](O)C(C)=CC(C(=O)O1)[C@]34O)O2 (stereo partly shown) [Example 32]	100%	100%
CCCCC(=O)OC1C(C)OC(O[C@@H]2/C(C)=C/C[C@@H]3C[C@@H](CC4(C=C[C@H](C)[C@@H]([C@@H](C)CC)O4)O3)OC(=O)C3C=C(C)[C@@H](O)[C@H]4OC/C(=C\C=C\[C@@H]2C)[C@@]34O)CC1OC (stereo partly shown) [Example 29]	100%	100%
CCC(C)C1OC2(C=CC1C)CC1CC(CC=C(C)C(OC3CC(OC)C(OC(=O)C(C)NC(=O)OC(C)(C)C)C(C)O3)C(C)C=CC=C3COC4C(O)C(C)=CC(C(=O)O1)C34O)O2 (stereo not shown) [Example 40]	100%	100%
CC[C@H](C)[C@H]1OC2(C=C[C@@H]1C)C[C@@H]1C[C@@H](C/C=C(\C)[C@@H](OC3CC(OC)C(OC(=O)CN4CCOCC4=O)C(C)O3)[C@@H](C)/C=C/C=C3\CO[C@@H]4[C@H](O)C(C)=CC(C(=O)O1)[C@]34O)O2 (stereo partly shown) [Example 75]	100%	100%
CC[C@H](C)[C@H]1OC2(C=C[C@@H]1C)C[C@@H]1C[C@@H](C/C=C(\C)[C@@H](OC3CC(OC)C(OC(=O)C(C)C#N)C(C)O3)[C@@H](C)/C=C/C=C3\CO[C@@H]4[C@H](O)C(C)=CC(C(=O)O1)[C@]34O)O2 (stereo partly shown) [Example 72]	100%	100%
CC[C@H](C)[C@H]1OC2(C=C[C@@H]1C)C[C@@H]1C[C@@H](C/C=C(\C)[C@@H](OC3CC(OC)C(OC(=O)CN4CCSCC4)C(C)O3)[C@@H](C)/C=C/C=C3\CO[C@@H]4[C@H](O)C(C)=CC(C(=O)O1)[C@]34O)O2 (stereo partly shown) [Example 80]	100%	100%
CCC(C)C1OC2(C=CC1C)CC1CC(CC=C(C)C(OC3CC(OC)C(OC(=O)C(C)N(C)C)C(C)O3)C(C)C=CC=C3COC4C(O)C(C)=CC(C(=O)O1)C34O)O2 (stereo not shown) [Example 81]	100%	100%
CC[C@H](C)[C@H]1OC2(C=C[C@@H]1C)C[C@@H]1C[C@@H](C/C=C(\C)[C@@H](OC3CC(OC)C(OC(=O)Cn4cnnn4)C(C)O3)[C@@H](C)/C=C/C=C3\CO[C@@H]4[C@H](O)C(C)=CC(C(=O)O1)[C@]34O)O2 (stereo partly shown) [Example 42]	83%	100%
CC[C@H](C)[C@H]1OC2(C=C[C@@H]1C)C[C@@H]1C[C@@H](C/C=C(\C)[C@@H](OC3CC(OC)C(OC(=O)C(C)c4ccc(Cl)nc4)C(C)O3)[C@@H](C)/C=C/C=C3\CO[C@@H]4[C@H](O)C(C)=CC(C(=O)O1)[C@]34O)O2 (stereo partly shown) [Example 69]	100%	100%
CN(C)C1(C)CC1 [Example 74]	100%	100%
CC[C@H](C)[C@H]1OC2(C=C[C@@H]1C)C[C@@H]1C[C@@H](C/C=C(\C)[C@@H](OC3CC(OC)C(OC(=O)Cn4ccc(C(F)(F)F)n4)C(C)O3)[C@@H](C)/C=C/C=C3\CO[C@@H]4[C@H](O)C(C)=CC(C(=O)O1)[C@]34O)O2 (stereo partly shown) [Example 59]	100%	100%
CC[C@H](C)[C@H]1OC2(C=C[C@@H]1C)C[C@@H]1C[C@@H](C/C=C(\C)[C@@H](OC3CC(OC)C(OC(=O)C4(F)CC4)C(C)O3)[C@@H](C)/C=C/C=C3\CO[C@@H]4[C@H](O)C(C)=CC(C(=O)O1)[C@]34O)O2 (stereo partly shown) [Example 36]	100%	83%
CCCC(=O)OC1C(C)OC(O[C@@H]2/C(C)=C/C[C@@H]3C[C@@H](CC4(C=C[C@H](C)[C@@H]([C@@H](C)CC)O4)O3)OC(=O)C3C=C(C)[C@@H](O)[C@H]4OC/C(=C\C=C\[C@@H]2C)[C@@]34O)CC1OC (stereo partly shown) [Example 28]	100%	100%
CC[C@H](C)[C@H]1OC2(C=C[C@@H]1C)C[C@@H]1C[C@@H](C/C=C(\C)[C@@H](OC3CC(OC)C(OC(=O)Cc4cccnc4)C(C)O3)[C@@H](C)/C=C/C=C3\CO[C@@H]4[C@H](O)C(C)=CC(C(=O)O1)[C@]34O)O2 (stereo partly shown) [Example 33]	100%	100%
CC[C@H](C)[C@H]1OC2(C=C[C@@H]1C)C[C@@H]1C[C@@H](C/C=C(\C)[C@@H](OC3CC(OC)C(OC(=O)C(C)N4CCOCC4)C(C)O3)[C@@H](C)/C=C/C=C3\CO[C@@H]4[C@H](O)C(C)=CC(C(=O)O1)[C@]34O)O2.O=C(O)c1ccccc1 (stereo partly shown) [Example 106, 4′-O-(2-Morpholin-4-ylpropanoyl)-avermectin B1 monosaccharide benzoate]	100%	100%
CC[C@H](C)[C@H]1OC2(C=C[C@@H]1C)C[C@@H]1C[C@@H](C/C=C(\C)[C@@H](OC3CC(OC)C(OC(=O)C(C)N4CCNCC4)C(C)O3)[C@@H](C)/C=C/C=C3\CO[C@@H]4[C@H](O)C(C)=CC(C(=O)O1)[C@]34O)O2 (stereo partly shown) [Example 105]	100%	100%
CC[C@H](C)[C@H]1OC2(C=C[C@@H]1C)C[C@@H]1C[C@@H](C/C=C(\C)[C@@H](OC3CC(OC)C(OC(=O)Cn4cccn4)C(C)O3)[C@@H](C)/C=C/C=C3\CO[C@@H]4[C@H](O)C(C)=CC(C(=O)O1)[C@]34O)O2 (stereo partly shown) [Example 35]	100%	100%
CC[C@H](C)[C@H]1OC2(C=C[C@@H]1C)C[C@@H]1C[C@@H](C/C=C(\C)[C@@H](OC3CC(OC)C(OC(=O)CCN4CCOCC4)C(C)O3)[C@@H](C)/C=C/C=C3\CO[C@@H]4[C@H](O)C(C)=CC(C(=O)O1)[C@]34O)O2 (stereo partly shown) [Example 83]	100%	100%
